Data: patent US8017612B2, “Piperazine compound and use thereof as a HCV polymerase inhibitor” (priority 2006, dated 2011)
Structures can show the parent of a compound that is named as a salt.

Legend:
[1] = biological target: T1, HCV polymerase (NS5B) type 1b (Hepatitis C virus genotype 1b, UniProt P26663); experiment: Assay of enzyme (HCV polymerase) inhibitory activity, type 1b enzyme; format: biochemical, HCV BK strain (type 1b)
T1 construct: a region encoding NS5B (J Virol 1991 March, 65(3), 1105-13, 544 amino acids after deletion of 47 amino acids on the C-terminal); 6xHis (C); made in house; host or cells: Escherichia coli
Summary of the method: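 Polymerase activity was followed as radiolabelled UTP incorporation by E. coli-expressed, His-tagged NS5B of HCV type 1b lacking its last 47 residues. Conditions: 2 μM UTP, 50 μM other NTPs, Mg2+ buffer at pH 7.5, 25 °C for 60 min. Inhibition relative to compound-free reactions gave IC50.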

[2] = biological target: T2, HCV polymerase (NS5B) type 1a (Hepatitis C virus genotype 1a, UniProt P26664); experiment: Assay of enzyme (HCV polymerase) inhibitory activity, type 1a enzyme; format: biochemical, HCV type 1a (cloned from the blood of patients)
T2 construct: made in house; host or cells: Escherichia coli (by the 'similar method' of the 1b enzyme)
Summary of the method: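 IC50 values derive from radioactivity of newly synthesized RNA with versus without test compound. The enzyme was C-terminally truncated type 1a NS5B, 1.5 μg/ml, run 60 min at 25° C with 3H-UTP-labelled nucleotides.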

[3] = HCV polymerase inhibitory activity IC50, 1b, type 1b enzyme
[4] = HCV polymerase inhibitory activity IC50, 1a, type 1a enzyme
[5] = HCV polymerase inhibitory activity (IC50), 1b, type 1b enzyme 0.5 μg/ml, 25° C., 60 min
[6] = HCV polymerase inhibitory activity (IC50), 1a, type 1a enzyme 1.5 μg/ml, 25° C., 60 min

SMILES | IC50 [1, 3] [nM] | IC50 [2, 4] [nM] | IC50 [1, 5] [nM] | IC50 [2, 6] [nM]
CCC(F)(F)c1ccc(CNC(=O)[C@H]2CN(c3nc4ccncc4[nH]3)CCN2S(=O)(=O)c2ccc(OC(F)(F)F)cc2)cc1 [Example 756, (R)-4-(3H-imidazo[4,5-c]pyridin-2-yl)-1-(4-trifluoromethoxy-benzenesulfonyl)-piperazine-2-carboxylic acid 4-(1,1-difluoro-propyl)-benzylamide] | < 100 | < 100 | – | –
COC(=O)c1cccc(NC(=O)N2CCN(S(=O)(=O)c3ccc(C(F)(F)F)cc3)[C@@H](C(=O)NCc3ccc(C(C)C)cc3)C2)c1 [Example 275, 3-{[(R)-3-(4-isopropyl-benzylcarbamoyl)-4-(4-trifluoromethyl-benzenesulfonyl)-piperazine-1-carbonyl]-amino}-benzoic acid methyl ester] | – | – | 100 to 1000 | 100 to 1000
Cc1nc(Cl)c2sc(N3CCN(S(=O)(=O)c4ccc(C(F)(F)F)cc4)[C@@H](C(=O)NCc4ccc(OC(F)(F)F)cc4)C3)nc2n1 [Example 927, (R)-4-(7-chloro-5-methyl-thiazolo[4,5-d]pyrimidin-2-yl)-1-(4-trifluoromethyl-benzenesulfonyl)-piperazine-2-carboxylic acid 4-trifluoromethoxy-benzylamide] | < 100 | < 100 | – | –
COc1ccc(S(=O)(=O)N2CCN(C(C)=O)C[C@@H]2C(=O)NCc2ccc(C(C)C)cc2)cc1C(=O)O [Example 248, 5-[(R)-4-acetyl-2-(4-isopropyl-benzylcarbamoyl)-piperazine-1-sulfonyl]-2-methoxy-benzoic acid] | – | – | 100 to 1000 | > 1000
CCC(F)(F)c1ccc(CNC(=O)[C@H]2CN(c3cnc4cncnc4n3)CCN2S(=O)(=O)c2ccc(OC)cc2)cc1 [Example 747, (R)-1-(4-methoxy-benzenesulfonyl)-4-pteridin-7-yl-piperazine-2-carboxylic acid 4-(1,1-difluoro-propyl)-benzylamide] | < 100 | < 100 | – | –
O=C(NCc1ccc(OC(F)(F)F)cc1)[C@H]1CN(c2nc3nc(C(F)(F)F)ncc3s2)CCN1S(=O)(=O)c1ccc(OC(F)(F)C(F)F)cc1 [Example 1004, (R)-1-[4-(1,1,2,2-tetrafluoro-ethoxy)-benzenesulfonyl]-4-(5-trifluoromethyl-thiazolo[4,5-d]pyrimidin-2-yl)-piperazine-2-carboxylic acid 4-trifluoromethoxy-benzylamide] | < 100 | < 100 | – | –
CCc1ccc(CNC(=O)[C@H]2CN(c3nc(C)c(C(=O)O)s3)CCN2S(=O)(=O)c2ccc(OC(F)(F)F)cc2)cc1 [Example 366, 2-[(R)-3-(4-ethyl-benzylcarbamoyl)-4-(4-trifluoromethoxy-benzenesulfonyl)-piperazin-1-yl]-4-methyl-thiazole-5-carboxylic acid] | – | – | < 100 | < 100
CC(O)c1ncc2sc(N3CCN(S(=O)(=O)c4ccc(OC(F)(F)F)cc4)[C@@H](C(=O)NCc4ccc(OC(F)(F)F)cc4)C3)nc2n1 (stereo partly drawn) [Example 1060, (R)-4-[5-(1-hydroxy-ethyl)-thiazolo[4,5-d]pyrimidin-2-yl]-1-(4-trifluoromethoxy-benzenesulfonyl)-piperazine-2-carboxylic acid 4-trifluoromethoxy-benzylamide] | < 100 | < 100 | – | –
CCCc1ccc(CNC(=O)[C@H]2CN(c3nc(CO)c(CO)s3)CCN2S(=O)(=O)c2ccc(OC(F)(F)F)cc2)cc1 [Example 562, (R)-4-(4,5-bis-hydroxymethyl-thiazol-2-yl)-1-(4-trifluoromethoxy-benzenesulfonyl)-piperazine-2-carboxylic acid 4-propyl-benzylamide] | – | – | < 100 | < 100
CC(=O)N1CCN(S(=O)(=O)c2ccc(OC(F)(F)F)cc2)[C@@H](C(=O)NCC2CCNCC2)C1 [Example 654, (R)-4-acetyl-1-(4-trifluoromethoxy-benzenesulfonyl)-piperazine-2-carboxylic acid (piperidin-4-ylmethyl)-amide hydrochloride] | – | – | > 1000 | > 1000
CCc1ccc(S(=O)(=O)N2CCN(c3cnc4cncc(C(=O)O)c4n3)C[C@@H]2C(=O)NCc2ccc(C(C)(C)CC)cc2)cc1 [Example 854, 2-[(R)-3-[4-(1,1-dimethyl-propyl)-benzylcarbamoyl]-4-(4-ethyl-benzenesulfonyl)-piperazin-1-yl]-pyrido[3,4-b]pyrazine-8-carboxylic acid] | < 100 | < 100 | – | –
CCCc1ccc(CNC(=O)[C@H]2CN(c3nc(C(=O)O)c(COC)s3)CCN2S(=O)(=O)c2ccc(OC(F)(F)F)cc2)cc1 [Example 536, 5-methoxymethyl-2-[(R)-3-(4-propyl-benzylcarbamoyl)-4-(4-trifluoromethoxy-benzenesulfonyl)-piperazin-1-yl]-thiazole-4-carboxylic acid] | – | – | < 100 | 100 to 1000
CCCc1ccc(CNC(=O)[C@H]2CN(C(=O)Cc3ccncc3)CCN2S(=O)(=O)c2ccc(OC(F)(F)F)cc2)cc1 [Example 411, (R)-4-(2-pyridin-4-yl-acetyl)-1-(4-trifluoromethoxy-benzenesulfonyl)-piperazine-2-carboxylic acid 4-propyl-benzylamide] | – | – | < 100 | < 100
CCOC(=O)CCCCCC(=O)N1CCN(S(=O)(=O)c2ccc(C(F)(F)F)cc2)[C@@H](C(=O)NCc2ccc(C(C)C)cc2)C1 [Example 316, 7-[(R)-3-(4-isopropyl-benzylcarbamoyl)-4-(4-trifluoromethyl-benzenesulfonyl)-piperazin-1-yl]-7-oxo-heptanoic acid ethyl ester] | – | – | 100 to 1000 | 100 to 1000
CC(=O)N1CCN(S(=O)(=O)c2cc(Cl)cc(Cl)c2)C(C(=O)NCc2ccc(C(F)(F)F)cc2)C1 (stereo not shown) [Example 351, 4-acetyl-1-(3,5-dichloro-benzenesulfonyl)-piperazine-2-carboxylic acid 4-trifluoromethyl-benzylamide] | – | – | > 1000 | > 1000
CCC(F)(F)c1ccc(CNC(=O)[C@H]2CN(C(=O)C(C)C)CCN2S(=O)(=O)c2ccc(OC(F)(F)F)cc2)cc1 [Example 609, (R)-4-isobutyryl-1-(4-trifluoromethoxy-benzenesulfonyl)-piperazine-2-carboxylic acid 4-(1,1-difluoro-propyl)-benzylamide] | – | – | 100 to 1000 | > 1000
CCC(F)(F)c1ccc(CNC(=O)[C@H]2CN(c3cnc4cnccc4n3)CCN2S(=O)(=O)c2ccc(OC(F)(F)F)cc2)cc1 [Example 648, (R)-4-pyrido[3,4-b]pyrazin-2-yl-1-(4-trifluoromethoxy-benzenesulfonyl)-piperazine-2-carboxylic acid 4-(1,1-difluoro-propyl)-benzylamide] | – | – | < 100 | < 100
CCc1ncc2sc(N3CCN(S(=O)(=O)c4ccc(OC(F)(F)F)cc4)[C@@H](C(=O)NCc4ccc(OC(F)(F)F)cc4)C3)nc2n1 [Example 949, (R)-4-(5-ethyl-thiazolo[4,5-d]pyrimidin-2-yl)-1-(4-trifluoromethoxy-benzenesulfonyl)-piperazine-2-carboxylic acid 4-trifluoromethoxy-benzylamide] | < 100 | < 100 | – | –
CCCc1ccc(CNC(=O)[C@H]2CN(c3cnccn3)CCN2S(=O)(=O)c2ccc(OC(F)(F)F)cc2)cc1 [Example 472, (R)-4-(4-trifluoromethoxy-benzenesulfonyl)-3,4,5,6-tetrahydro-2H-[1,2′]bipyrazinyl-3-carboxylic acid 4-propyl-benzylamide] | – | – | < 100 | < 100
O=C(NCc1ccc(OC(F)F)cc1)[C@H]1CN(c2nc3ncncc3s2)CCN1S(=O)(=O)c1ccc(C(F)(F)F)cc1 [Example 969, (R)-4-thiazolo[4,5-d]pyrimidin-2-yl-1-(4-trifluoromethyl-benzenesulfonyl)-piperazine-2-carboxylic acid 4-difluoromethoxy-benzylamide] | < 100 | < 100 | – | –
O=C(NCc1ccc(OC(F)(F)F)cc1)[C@H]1CN(c2nn3ccc(=O)nc3s2)CCN1S(=O)(=O)c1ccc(C(F)(F)F)cc1 [Example 1059, (R)-4-(7-oxo-7H-[1,3,4]thiadiazolo[3,2-a]pyrimidin-2-yl)-1-(4-trifluoromethyl-benzenesulfonyl)-piperazine-2-carboxylic acid 4-trifluoromethoxy-benzylamide] | < 100 | < 100 | – | –
O=C(NCc1ccc(OC(F)(F)F)cc1)[C@H]1CN(c2nc3nnnc(NCCO)c3s2)CCN1S(=O)(=O)c1ccc(OC(F)(F)F)cc1 [Example 1002, (R)-4-[4-(2-hydroxy-ethylamino)-thiazolo[4,5-d][1,2,3]triazin-6-yl]-1-(4-trifluoromethoxy-benzenesulfonyl)-piperazine-2-carboxylic acid 4-trifluoromethoxy-benzylamide] | < 100 | < 100 | – | –
CN(C)c1ncc2sc(N3CCN(S(=O)(=O)c4ccc(OC(F)(F)F)cc4)[C@@H](C(=O)NCc4ccc(OC(F)(F)F)cc4)C3)nc2n1 [Example 945, (R)-4-(5-dimethylamino-thiazolo[4,5-d]pyrimidin-2-yl)-1-(4-trifluoromethoxy-benzenesulfonyl)-piperazine-2-carboxylic acid 4-trifluoromethoxy-benzylamide] | < 100 | < 100 | – | –
